Patent publication US12378221B2, “Salts of obicetrapib and processes for their manufacture and intermediates thereof” (NewAmsterdam Pharma B.V., priority 2022, dated 2025)
Counter-ions that a name gives are not always drawn.

How the values were obtained:
[1] = Physical stability at 70° C./75% relative humidity, by XRPD; assay type: physicochemical
Source text: FIG. 6 is a plot of x-ray powder diffraction pattern taken of crystalline obicetrapib hemicalcium, and FIG. 7 is a plot of x-ray powder diffraction patterns taken of crystalline obicetrapib hemicalcium under stress conditions. In FIG. 7, there are four diffraction patterns shown based on stability study set forth in Example 27. Pattern 1 is an x-ray powder diffraction pattern of a sample of amorphous obicetrapib hemicalcium. Pattern 2 is the x-ray powder diffraction pattern of a sample of crystalline obicetrapib hemicalcium. In pattern 3, the sample of crystalline obicetrapib hemicalcium was exposed to 70° C. at 75% relative humidity for one day. […] was taken before the sample was placed on stability.
XRPD was performed with Panalytical X'Pert^3 Powder diffractometer using an incident beam of Cu radiation produced using an Empyran tube, fine focused source, on a silicon zero-background holder. […] Approximately 5 to 10 mg of sample was placed on a silicon zero-background holder and flattened manually using an aluminum spatula to minimize difference in the overall sample height. The holder was then loaded on the instrument for analysis. The XRPD parameters used are listed in Table 10.
Stability study was conducted on crystalline and amorphous forms of obicetrapib at 70° C./75% relative humidity (RH). The solids were placed into a 4.0 ml glass vial without caps (open condition) and stored at 70° C./75% RH. […] The solids were analyzed by XRPD for physical stability and by HPLC for chemical purity. The sample collected at each time point was dissolved in methanol before HPLC analysis. In order to minimize the effect of potential analyte adsorption on the filter, the initial 0.5 mL of supernatant passing through the filter was discarded prior to collecting sample for HPLC analysis. Purity for each sample was determined based on peak area percent and compared to the sample at T=0.

[2] = clinical studies; cited from earlier work
[3] = target: T1, Cholesterol Ester Transfer Protein (CETP) (Homo sapiens, UniProt P11597); conditions: repeated daily dosages (once a day) as low as 2.5 mg; cited from earlier work
T1 construct: CETP is a plasma protein secreted primarily by liver and adipose tissue; host or cells: endogenous plasma CETP of dosed clinical-study subjects
T1 sequence (P11597 18-493): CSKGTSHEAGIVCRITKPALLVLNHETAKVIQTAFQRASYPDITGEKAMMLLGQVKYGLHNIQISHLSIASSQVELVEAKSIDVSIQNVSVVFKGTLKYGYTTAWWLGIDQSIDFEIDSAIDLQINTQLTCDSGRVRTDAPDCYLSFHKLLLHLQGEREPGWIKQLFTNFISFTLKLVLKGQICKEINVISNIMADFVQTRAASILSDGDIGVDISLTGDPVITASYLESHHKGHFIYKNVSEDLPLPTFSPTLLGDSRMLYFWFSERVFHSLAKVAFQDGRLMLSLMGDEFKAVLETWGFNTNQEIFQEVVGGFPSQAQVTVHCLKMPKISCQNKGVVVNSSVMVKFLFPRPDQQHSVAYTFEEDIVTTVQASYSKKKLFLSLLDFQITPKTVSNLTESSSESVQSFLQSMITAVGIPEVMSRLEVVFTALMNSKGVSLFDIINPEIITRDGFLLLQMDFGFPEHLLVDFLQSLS

[4] = Solubility in water at 20° C.; assay type: physicochemical
Source text: Solubility is especially challenging with obicetrapib. […] It would be desirable to have a solid form of obicetrapib that would deliver a larger amount of obicetrapib.

[5] = Moisture uptake / hygroscopicity; assay type: physicochemical
Source text: When exposed to relative humidities approaching 90%, moisture uptake has been measured to be typically less than about 5% for example. […] Other drawbacks commonly associated with manufacturing and using amorphous materials are similarly not present. For example, amorphous materials are often challenging to make chemically pure.

[6] = Loss of crystallinity on drying, by XRPD (FIG. 18); assay type: physicochemical; conditions: 48 hours at 55° C. at a pressure of 2 mbar
Procedure: Upon stress, crystalline obicetrapib HCl loses its crystallinity. In FIG. 18, pattern 2 reflects crystalline obicetrapib HCl subject to a mild drying treatment whereby surface solvent was removed and it can be seen that this compound is crystalline. By comparison, the sample whose x-ray powder diffraction was measured in pattern 1 was subject to a stronger drying treatment at 48 hours at 55° C. at a pressure of 2 mbar. […] The amorphous pattern, therefore, represents HCl obicetrapib which is not crystalline obicetrapib. It may be obicetrapib, but is believed to have HCl associated with the obicetrapib as a solvate and thus is HCl obicetrapib, but with a lower chloride content than typically found in the ranges found for crystalline obicetrapib HCl. In some embodiments, that chloride content is less than 0.1% by weight such as between about 0.01% and 0.1% by weight.
Diffraction patterns were measured using a Thermo Fisher Scientific ARL Equinox 1000 powder diffractometer. The diffractometer is equipped with a copper source and a germanium (111) monochromator providing monochromatic Cu Kα1 radiation, and a position sensitive gas-ionization detector.
Samples were measured in reflection mode using an A1 sample holder without any further preparation (i.e., grinding). […]

CCOC(=O)N1c2ccc(C(F)(F)F)cc2[C@@H](N(Cc2cc(C(F)(F)F)cc(C(F)(F)F)c2)c2ncc(OCCCC(=O)O)cn2)C[C@H]1CC [Amorphous obicetrapib hemicalcium]
physical stability of solid form (XRPD) ([1]; 7 days, open vial): remained amorphous | physical stability of solid form (XRPD) ([1]; 14 days): remained amorphous

CCOC(=O)N1c2ccc(C(F)(F)F)cc2[C@@H](N(Cc2cc(C(F)(F)F)cc(C(F)(F)F)c2)c2ncc(OCCCC(=O)O)cn2)C[C@H]1CC [obicetrapib, (2R,4S)-4-{[3,5 bis(trifluoromethyl)benzyl]-[5-(3-carboxypropoxy)pyrimidin-2-yl]amino}-2-ethyl-6-trifluoromethyl-3,4-dihydro-2H-quinoline-1-carboxylic acid ethyl ester]
serious side effects [2]: does not lead to serious side effects | CETP inhibition [3]: near complete CETP inhibition | solubility in water [4]: less than 0.1 mg/mL

CCOC(=O)N1c2ccc(C(F)(F)F)cc2[C@@H](N(Cc2cc(C(F)(F)F)cc(C(F)(F)F)c2)c2ncc(OCCCC(=O)[O-])cn2)C[C@H]1CC.CCOC(=O)N1c2ccc(C(F)(F)F)cc2[C@@H](N(Cc2cc(C(F)(F)F)cc(C(F)(F)F)c2)c2ncc(OCCCC(=O)[O-])cn2)C[C@H]1CC.[Ca+2] [Crystalline obicetrapib hemicalcium, reference compound]
physical stability of solid form (XRPD) ([1]; 7 days, open vial): the result remains the same | physical stability of solid form (XRPD) ([1]; one day, open vial): near total loss of crystallinity

CCOC(=O)N1c2ccc(C(F)(F)F)cc2[C@@H](N(Cc2cc(C(F)(F)F)cc(C(F)(F)F)c2)c2ncc(OCCCC(=O)O)cn2)C[C@H]1CC [crystalline obicetrapib HCl, (2R,4S)-4-{[3,5-bis(trifluoromethyl)benzyl]-[5-(3-carboxypropoxy)pyrimidin-2-yl]amino}-2-ethyl-6-trifluoromethyl-3,4-dihydro-2H-quinoline-1-carboxylic acid ethyl ester hydrochloride]
hygroscopicity [5]: hygroscopic | solid form after drying (XRPD) [6]: changed the material from crystalline to amorphous
